{
  "source": "patent US7642261B2",
  "about": "“Use of 1-[4-(5-cyanoindol-3-yl)butyl]-4-(2-carbamoyl-benzofuran-5-yl)-piperazine and its physiologically acceptable salts” (Merck Patent GmbH, priority 2002, dated 2010)",
  "type_in_all_cases": "in vivo",
  "key": {"[1]": {"tested_on": "rats", "assay": "Passive Avoidance test with scopolamine (model for dementia)", "details": "10 mg/kg p.o., compared to untreated rats", "description": "(§1) Typical models for dementia, Alzheimer's disease and multi-infarct are the Passive Avoidance test in rats [S. D. Glick and B. Zimmerberg, Behav. Biol., 1972, 7: 245-254; D. K. Rush, Behav. Neural Biol., 1988, 50: 255-274] and the testing of memory functions in the Morris Water Maze in aged rats [R. Morris, J. Neurosci. Methods, 1984, 11: 47-60, F. H. Gage et al. Neurobiol. Aging. 1984, 5: 43-48].\nFor the Passive Avoidance test, the apparatus is a runway separated from a dark compartment by a small door. The amnestic drug scopolamine is administered before the animal is submitted to an aquisition trial: the rat is placed on the entry of the runway opposite to the dark compartment, the latency to enter the dark compartment is recorded, and once the rat has entered the dark compartment, the door is closed and a foot schock is administered via the gridfloor. A retention trial is performed 48 h later identical to the aquisition trial (without scopolamine) and the latency to enter the dark compartment recorded again. […]"}, "[2]": {"tested_on": "mice", "assay": "Neophobia model: unfamiliar food in a novel environment", "details": "mice deprived from food for 18 h, oral application, 3 mg/kg", "procedure": "In a typical model for neophobia, mice deprived from food for 18 h are given access to unfamiliar food in a novel environment [P. Soubrie at al., Psychopharmacologica, 1975, 45: 203-210]. 1-[4-(5-cyanoindol-3-yl)butyl]-4-(2-carbamoyl-benzofuran-5-yl)-piperazine or one of its physiologically acceptable salts, in particular 1-[4-(5-cyanoindol-3-yl)butyl]-4-(2-carbamoyl-benzofuran-5-yl)-piperazine hydrochloride, following oral application increased food intake by 21% at the dose of 3 mg/kg."}, "[3]": {"tested_on": "rats", "assay": "Models for anxiety associated with posttraumatic stress (cat stressor; hole board, elevated plus maze, acoustic startle)", "details": "given after (acute treatment) and before (prophylactic treatment) the cat stressor", "description": "Animal models of anxiety associated with posttraumatic stress in rats utilize the long-lasting behavioural changes induced by exposure to a native stressor. The therapeutic effects of a compound effective for the acute treatment of anxiety associated with posttraumatic stress are modelled by administration of the compound after exposure to the stressor. The therapeutic effects of a compound effective for the prophylactic treatment of anxiety associated with posttraumatic stress are modelled by administration of the compound before exposure to the stressor. Amongst the several behavioral test procedures, the following is most validated [R. E. Adamec and T. Shallow, Physiology Behavior, 1993, 54: 101-109; R. E. Adamec et al., Behav. Neurosci. 1997, 111: 435-449]. […] The hole board consists of a box (60 cm×60 cm) with four evenly spaced holes; the number of poking its head into a hole is counted for 5 minutes. […] The rat is placed in the centre of the arms, and the frequency of attempts to enter an open arm (risk assessment) as well as the time spent on the open and closed arms are measured. In the acoustic startle test, the rat is placed in a plexiglass cylinder, and a series of 20 white noise bursts of 120 dB out of a background noise of 60 dB is applied, and the latency to and the peak startle amplitude are measured. […]"}, "[4]": {"tested_on": "mice", "assay": "Four Plate Test (model for acute stress indication)", "details": "oral dose of 3 mg/kg, five minute test period", "procedure": "A typical model for acute stress indication is the Four Plate Test according to C. Aron, P. Simon, C. Larousse, J. R. Boissier, Neuropharmacology 1971, 10: 459-469.\nThe apparatus consists of small box with a floor made up of four metal plates. Each time the mouse crosses from one plate to another, it is given a brief electric footshock reducing the amount of exploratory behavior. The number of punished crossings from one plate to another (i.e. number of shocks accepted by the animal) is recorded during a five minute test period. Normal mice make only few punished crossings, i.e. accept only a few footshocks.\n1-[4-(5-cyanoindol-3-yl)butyl]-4-(2-carbamoyl-benzofuran-5-yl)-piperazine hydrochloride following and oral dose of 3 mg/kg increased the number of punished crossings by 41%."}, "[5]": {"tested_on": "aged rats", "assay": "Morris Water Maze in aged rats", "details": "old rats, tested at day 7, untreated old rats 95 sec, vehicle treated young rats 76 sec", "description": "as §1\nThe Morris Water Maze consists of a circular water tank (150 cm in diameter) filled with water with an escape platform (15 cm in diameter) 18 cm from the periphery beneath the surface of the water. The water is made opaque rendering the platform invisible. Rats placed in the tank swim around and find the hidden platform accidently after a certain time (latency), and the latency to find the platform is taken as measure. When given further training session to find the platform, rats show reduced latencies from day to day, i.e. remember (learn) the location of the platform. But compared to young rats, aged rats perform less well in learning over days reflecting impaired learning capacity. Drugs effective for dementia and particularly Alzheimers disease improve the earning capacity of aged rats.\n1-[4-(5-cyanoindol-3-yl)butyl]-4-(2-carbamoyl-benzofuran-5-yl)-piperazine hydrochloride is administered to old rats at oral doses of 1 and 3 mg/kg every day. […]"}, "[6]": {"assay": "Development of body weight, dogs", "description": "Thus, differential effects on body weight indicating therapeutic efficacy in either obesity or anorexia depending on the dose range used are evident."}},
  "data": [
    {"smiles": "Cl.N#Cc1ccc2[nH]cc(CCCCN3CCN(c4ccc5oc(C(N)=O)cc5c4)CC3)c2c1", "note": "[1-[4-(5-cyanoindol-3-yl)butyl]-4-(2-carbamoyl-benzofuran-5-yl)-piperazine hydrochloride]", "values": [
      {"measurement": "increase of latency to enter the dark compartment in the first retention trial", "setting": "[1]", "value": 78, "unit": "%"},
      {"measurement": "increase of food intake", "setting": "[2]", "value": 21, "unit": "%"},
      {"measurement": "effect in models for anxiety associated with posttraumatic stress", "setting": "[3]", "value": "effective"},
      {"measurement": "increase of number of punished crossings", "setting": "[4]", "value": 41, "unit": "%"},
      {"measurement": "latency to find the platform in the first attempt", "setting": "[5]; oral 1 mg/kg every day", "value": 77, "unit": "s"},
      {"measurement": "latency to find the platform in the first attempt", "setting": "[5]; oral 3 mg/kg every day", "value": 73, "unit": "s"},
      {"measurement": "development of body weight", "setting": "[6]", "value": "reduced development of body weight"}
    ]}
  ]
}
